The subject of experiment [1] is velvetleaf (Abutilon theophrasti Medik.) (VL). Nature of the experiment: Preemergence herbicide test, soil drench, velvetleaf. To be noted: 10 lbs/A (11.2 kg/ha) soil drench, two weeks after treatment, vs untreated checks; for pest or weed control at 11208.5 g/ha: Abutilon theophrasti, 336 h, read-out: Percent Weed Control VL. Type of experiment: in vivo. The procedure: (§1) To illustrate the effectiveness of the previously described substituted oxadiazines of this invention as preemergence herbicides, 300 mg of the chemical was dissolved in a composition comprising 10 mL acetone to which 30 mg of tile emulsifying agent, ethoxylated sorbitan monolaurate, was added. The solution was diluted to 100 mL with distilled water. Ten milliliters of this 3000 ppm solution was diluted to 250 ppm with distilled water. The chemical was applied at the rate of 10 pounds/acre (11.2 kg/ha) by drenchings 46 mL of the 250 ppm solution on the surface of soil in 4½ inch (11.25 cm) plastic pots wherein seeds of the following weeds had been planted: velvetleaf (Abutilon theophrasti Medik.) (VL), The percent control of the weeds compared to untreated checks was determined two weeks after treatment. TABLE 1 summarizes the results achieved with compounds formulated as indicated above, and the data clearly indicate the good to excellent herbicidal efficacy of compositions of this invention.

Experiment [2] relates to jimsonweed (Datura stramonium L.) (JW). In words: Preemergence herbicide test, soil drench, jimsonweed. The class given is in vivo. The settings on record: 10 lbs/A (11.2 kg/ha) soil drench, two weeks after treatment, vs untreated checks. On the procedure: as §1, with “jimsonweed (Datura stramonium L.) (JW),” for “velvetleaf (Abutilon theophrasti Medik.) (VL),”
Experiment [3] concerns prickly sida (Sida spinosa L.) (PS). Nature of the experiment: Preemergence herbicide test, soil drench, prickly sida. The class given is in vivo. To be noted: Sida spinosa, 336 h, 10 lbs/A (11.2 kg/ha) soil drench, two weeks after treatment, vs untreated checks, read-out: Percent Weed Control PS. On the procedure: To illustrate the effectiveness of the previously described substituted oxadiazines of this invention as preemergence herbicides, 300 mg of the chemical was dissolved in a composition comprising 10 mL acetone to which 30 mg of tile emulsifying agent, ethoxylated sorbitan monolaurate, was added. The solution was diluted to 100 mL with distilled water. Ten milliliters of this 3000 ppm solution was diluted to 250 ppm with distilled water. […]
prickly sida (Sida spinosa L.) (PS),
(§2) The percent control of the weeds compared to untreated checks was determined two weeks after treatment. TABLE 1 summarizes the results achieved with compounds formulated as indicated above, and the data clearly indicate the good to excellent herbicidal efficacy of compositions of this invention.

Experiment [4] concerns tall morningglory (Ipomoea purpurea (L.) Roth) (TM). In words: Preemergence herbicide test, soil drench, tall morningglory. Type of experiment: in vivo. To be noted: 10 lbs/A (11.2 kg/ha) soil drench, two weeks after treatment, vs untreated checks; for pest or weed control at 11208.5 g/ha: Ipomoea, 336 h, read-out: Percent Weed Control TM. The procedure:
as §1, with “tall morningglory (Ipomoea purpurea (L.) Roth) (TM),” for “velvetleaf (Abutilon theophrasti Medik.) (VL),”

The subject of experiment [5] is barnyardgrass (Echinochloa crus-galli (L.) Beauv.) (BG). In words: Preemergence herbicide test, soil drench, barnyardgrass. The class given is in vivo. The settings on record: 10 lbs/A (11.2 kg/ha) soil drench, two weeks after treatment, vs untreated checks; for pest or weed control at 11208.5 g/ha: Echinochloa crus-galli, 336 h, read-out: Percent Weed Control BG. On the procedure:
as §1, with “barnyardgrass (Echinochloa crus-galli (L.) Beauv.) (BG), and” for “velvetleaf (Abutilon theophrasti Medik.) (VL),”

The subject of experiment [6] is switchgrass (Panicum virgahim L.) (SG). Nature of the experiment: Preemergence herbicide test, soil drench, switchgrass. To be noted: 10 lbs/A (11.2 kg/ha) soil drench, two weeks after treatment, vs untreated checks; for pest or weed control at 11208.5 g/ha: Panicum, 336 h, read-out: Percent Weed Control SG. Type of experiment: in vivo. On the procedure: as §1, with “planted:” for “planted: velvetleaf (Abutilon theophrasti Medik.) (VL), The percent control of the weeds compared to untreated checks was determined two weeks after treatment. TABLE 1 summarizes the results achieved with compounds formulated as indicated above, and the data clearly indicate the good to excellent herbicidal efficacy of compositions of this invention.”
switchgrass (Panicum virgahim L.) (SG),
as §2

For experiment [7], the system named is green foxtail (Setaria virdis (L.) Beauv.) (GF). Nature of the experiment: Preemergence herbicide test, soil drench, green foxtail. Type of experiment: in vivo. The settings on record: 10 lbs/A (11.2 kg/ha) soil drench, two weeks after treatment, vs untreated checks; for pest or weed control at 11208.5 g/ha: Setaria, 336 h, read-out: Percent Weed Control GF. On the procedure: as §1, with “41⁄2” for “4½”, “green foxtail (Setaria […].) Beauv.) (GF).” for “velvetleaf (Abutilon theophrasti Medik.) (VL),”

Experiment [8] concerns insects. Nature of the experiment: Insecticidal properties (no method given). To be noted: statement in words, no test details.

Each structure is given as a SMILES string.

For `FC(F)(F)C(F)(F)C(F)(F)C1=NC(C(F)(F)F)(C(F)(F)F)N=C(c2ccccc2)O1` [2-(heptafluoropropyl)-6-phenyl-4,4-bis(trifluoromethyl)-4H-1,3,5-oxadiazine, reference compound], the pest or weed control at 11208.5 g/ha in experiment [1], in experiment [3], in experiment [4], in experiment [5], in experiment [6] and in experiment [7] was 0% throughout. For the same compound, the “Percent Weed Control JW” value in experiment [2] worked out at 0%.

Turning to `FC(F)(F)C1=NC(C(F)(F)F)(C(F)(F)F)N=C(c2ccccc2C(F)(F)F)O1` [Compound 6, 2,4,4-tris(trifluoromethyl)-6-{(2-trifluoromethyl)phenyl}-4H-1,3,5-oxadiazine], in experiment [1], the “Percent Weed Control VL” value came out at 100%. For the same compound, the “Percent Weed Control JW” value in experiment [2] worked out at 75%. Moreover, the “Percent Weed Control TM” value in experiment [4] is recorded as 100%. The “Percent Weed Control BG” value in experiment [5] was 50%. Moreover, in experiment [6], the “Percent Weed Control SG” value was 75%. The “Percent Weed Control GF” value in experiment [7] is 100%.

Turning to `FC(F)(F)C(F)(F)C1=NC(C(F)(F)F)(C(F)(F)F)N=C(c2ccccc2Cl)O1` [Compound 12, 2-(2-chlorophenyl)-6-(pentafluoroethyl)-4,4-bis(trifluoromethyl)-4H-1,3,5-oxadiazine], the pest or weed control at 11208.5 g/ha is 100% in experiment [1]; 100% in experiment [4]; 0% in experiment [5]; 75% in experiment [6]; 100% in experiment [7]. For the same compound, the “Percent Weed Control JW” value in experiment [2] turned out to be 100%.

In the case of `FC(F)(F)c1cccc(C2=NC(C(F)(F)F)(C(F)(F)F)N=C(C(F)(F)C(F)(F)F)O2)c1` [Compound 14, 2-(pentafluoroethyl)-4,4-bis(trifluoromethyl)-6-{(3-trifluoromethyl)phenyl}-4H-1,3,5-oxadiazine], in experiment [1], the “Percent Weed Control VL” value stood at 100%. Besides, in experiment [2], the “Percent Weed Control JW” value is 100%. The “Percent Weed Control TM” value in experiment [4] was found to be 100%. Also, the “Percent Weed Control BG” value in experiment [5] came to 100%. In addition, in experiment [6], the “Percent Weed Control SG” value turned out to be 100%. The “Percent Weed Control GF” value in experiment [7] is listed as 100%. The insecticidal properties result in experiment [8] is “found to have insecticidal properties”.

For the compound `FC(F)(F)Oc1ccc(C2=NC(C(F)(F)F)(C(F)(F)F)N=C(C(F)(F)C(F)(F)F)O2)cc1` [Compound 16, 2-(pentafluoroethyl)-6-{(4-trifluoromethoxy)phenyl}-4,4-bis(trifluoromethyl)-4H-1,3,5-oxadiazine], the “Percent Weed Control VL” value in experiment [1] turned out to be 100%. Moreover, in experiment [2], the “Percent Weed Control JW” value stood at 100%. Also, in experiment [4], the “Percent Weed Control TM” value is reported as 100%. In addition, in experiment [5], the “Percent Weed Control BG” value worked out at 100%. For the same compound, the “Percent Weed Control SG” value in experiment [6] is 100%. In addition, the “Percent Weed Control GF” value in experiment [7] stood at 100%. Also, the insecticidal properties result in experiment [8] is given as “found to have insecticidal properties”.

In the case of `FC(F)(F)C(F)(F)C1=NC(C(F)(F)F)(C(F)(F)F)N=C(c2cc(Cl)cc(Cl)c2)O1` [Compound 21, 2-(3,5-dichlorophenyl)-6-(pentafluoroethyl)-4,4-bis(trifluoromethyl)-4H-1,3,5-oxadiazine], the pest or weed control at 11208.5 g/ha in experiment [1], in experiment [4], in experiment [5], in experiment [6] and in experiment [7] was 100% throughout. Further, the “Percent Weed Control JW” value in experiment [2] is reported as 100%.

Take `Cc1cccc(C2=NC(C(F)(F)F)(C(F)(F)F)N=C(C(F)(F)C(F)(F)F)O2)c1` [Compound 22, 2-(3-methylphenyl)-6-(pentafluoroethyl)-4,4-bis(trifluoromethyl)-4H-1,3,5-oxadiazine]: the pest or weed control at 11208.5 g/ha in experiment [1] amounted to 100%; in experiment [4] it was 0%; in experiment [5], 0%; in experiment [6], 0%; in experiment [7] it was 50%. Moreover, the “Percent Weed Control JW” value in experiment [2] is given as 100%.

Regarding `COc1cccc(C2=NC(C(F)(F)F)(C(F)(F)F)N=C(C(F)(F)C(F)(F)F)O2)c1` [Compound 23, 2-(3-methoxyphenyl)-6-(pentafluoroethyl)-4,4-bis(trifluoromethyl)-4H-1,3,5-oxadiazine], the pest or weed control at 11208.5 g/ha stood at 100% in experiment [1]; 100% in experiment [4]; 0% in experiment [5]; 50% in experiment [6]; 50% in experiment [7]. In experiment [2], the “Percent Weed Control JW” value is on record as 100%.
